Test results reported in patent US6359168B1, “Compounds derived from menthol and use as refreshing agent” (Firmenich SA, priority 1998, dated 2002).

Legend:
Assay type in all cases: in vivo, human
[1] = test system: expert flavourists; assay: Gelatin-based grapefruit confectioneries compared by expert flavourists under blind conditions; details: 0.05% by weight in gelatin-based grapefruit confectionery
Description: By a method which is known per se, grapefruit-flavoured confectioneries were prepared from 30 g gelatin, 175 g water, 150 g sugar and 200 g glucose. We then added 0.8% citric acid and 0.08% of a grapefruit flavouring of the formula given in Example 6. Under blind conditions, expert flavourists then compared this base preserve, without any additives, with preserve of the same composition to which certain compounds according to the invention had been added.

[2] = test system: expert tasters; assay: Chewing gum compared by expert tasters under blind conditions; details: 0.4 parts by weight in chewing gum
Description: Chewing gum was prepared from a Cafosa Navada Plus T 413-01chewing-gum base (18 parts by weight) (source: Cafosa Gum Products Technology, Barcelona, Spain), sugar (60 parts by weight, glucose (20 parts by weight) and glycerol (0.5 parts by weight). 0.8 parts by weight of citric acid and 1 part by weight of lemon flavouring according to the formula given in Example 8 were then added to this mixture. Under blind conditions, expert tasters then compared this chewing-gum base, without any additives, with chewing gums of the same composition to which certain compounds according to the invention had been added.

[3] = test system: buccal mucosae; assay: Taste and cooling effect of the compound when tasted
[4] = test system: expert flavourists; assay: Grapefruit-flavoured sweets compared by expert flavourists under blind conditions; details: 0.05% in grapefruit-flavoured sweets
Description: Grapefruit-flavoured sweets were prepared from boiled sugar, 1% citric acid, and 0.05% of a grapefruit flavouring of the following formula: Under blind conditions, expert flavourists then compared these sweets, without any additives, with sweets of the same composition to which certain compounds according to the invention had been added.

[5] = test system: expert flavourists; assay: Lemon sorbets compared by expert flavourists under blind conditions; details: 0.05% by weight in lemon sorbet
Description: Lemon sorbets were prepared from the following ingredients using conventional techniques: 0.5% citric acid and 0.01% of lemon flavouring of the following formula were then added: Under blind conditions, expert flavourists then compared this lemon sorbet, without any additives, with sorbets of the same composition to which certain compounds according to the invention had been added.

[6] = test system: expert tasters; assay: Orange drink compared by expert tasters under blind conditions; details: 0.003% in orange drink
Description: An orange-flavoured drink was prepared from a 65° Brix syrup which had been diluted to 10%, acidified with 1.5% citric acid and then flavoured with 0.01% of an orange flavouring of the following formula: Under blind conditions, expert tasters then compared this base drink, without any additives, with drinks of the same composition to which certain compounds according to the invention had been added.

SMILES	freshness [1]	freshness [2]	cooling effect [3]	freshness [4]	freshness [5]	freshness [6]
COCCOCC(=O)O[C@@H]1C[C@H](C)CC[C@H]1C(C)C [(1R,2S,5R)-3-menthyl 3,6-dioxaheptanoate]	the same freshness effect	prolonged freshness	–	–	–	–
CC(C)[C@@H]1CC[C@@H](C)C[C@H]1OC(=O)COCCO [(1R,2S,5R)-3-menthyl (2-hydroxyethoxy)acetate]	–	–	immediately and intensely cooling	–	–	–
COCC(=O)O[C@@H]1C[C@H](C)CC[C@H]1C(C)C [(1R,2S,5R)-3-menthyl methoxyacetate, (1R,2S,5R)-3-methyl methoxyacetate]	leaves a freshness in the mouth	prolonged freshness	–	yielded a freshness	pleasant freshness in the mouth	sensation of freshness which develops as an after-taste
CC(C)[C@@H]1CC[C@@H](C)C[C@H]1OC(=O)COCCOCCOCCO [(1R,2S,5R)-menthyl 11-hydroxy-3,6,9-trioxaundecanoate]	–	–	develops more particularly on the tongue and in the throat	–	–	–
